Measured values reported in publication PMC3870094 (Environmental science & technology, 2013).
Several values for one entry are separate records, joined by “and”; a condition that tells them apart may be missing. Equal entries are not always repeated.

What was measured:
[1] = Sprague-Dawley rats, intraperitoneal injection of PCB 136; cited from earlier work
Rat CYP2B1 [2] = target: T1, Rat CYP2B1 (Rattus norvegicus, UniProt P00176); type: in vitro ADME; conditions: for Formation of metabolite with increases in initial (+)-PCB 136 concentration: 500 ng (−)-PCB 136 as major substrate
T1 sequence (P00176 1-491): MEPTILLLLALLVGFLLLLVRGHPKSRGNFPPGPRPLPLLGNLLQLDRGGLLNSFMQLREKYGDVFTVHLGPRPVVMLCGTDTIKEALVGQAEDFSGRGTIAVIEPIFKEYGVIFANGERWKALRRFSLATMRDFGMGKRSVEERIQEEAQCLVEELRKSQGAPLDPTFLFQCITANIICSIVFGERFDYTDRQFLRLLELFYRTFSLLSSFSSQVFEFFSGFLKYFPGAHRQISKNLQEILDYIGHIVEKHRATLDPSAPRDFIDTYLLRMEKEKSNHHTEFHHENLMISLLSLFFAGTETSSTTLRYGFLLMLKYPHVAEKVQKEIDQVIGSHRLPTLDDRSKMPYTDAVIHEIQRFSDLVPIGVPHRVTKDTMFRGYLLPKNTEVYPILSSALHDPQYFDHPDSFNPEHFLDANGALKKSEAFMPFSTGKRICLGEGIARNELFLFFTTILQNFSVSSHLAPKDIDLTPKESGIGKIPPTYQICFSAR

rat liver microsomes = conditions: cited from earlier work
Rat CYP2B1 [3] = target: T1, Rat CYP2B1; conditions: for Average EF of 5-OH-PCB metabolite: formed from parent PCB by rat CYP2B1, 60 min, two enantioselective columns; for Biotransformation activity of atropisomer compared with antipode: Fig. 1A1; for Depletion of PCB after 60 min incubation: rat CYP2B1, 1000 ng/mL PCB; for Formation of 4,5-DiOH-PCB from PCB: Fig. 1B1; for 4-OH-PCB metabolites detected by GC-ECD: not confirmed by GC-MS; for Depletion of OH-PCB after 60 min: rat CYP2B1, OH-PCB as substrate; for EF of OH-PCB substrate after biotransformation: rat CYP2B1, racemic OH-PCB as substrate
[4] = cited from earlier work; for EF of OH-PCB 95 in the liver: female C57Bl/6 mice
[5] = cited from earlier work

Oc1cc(Cl)c(Cl)c(-c2c(Cl)ccc(Cl)c2Cl)c1Cl [5-136, 2,2',3,3',6,6'-hexachlorobiphenyl-5-ol]
EF of 5-136 in livers [1]: ≈ 0.4 | Formation of metabolite with increases in initial (+)-PCB 136 concentration (Rat CYP2B1 [2]; 60 min): not influenced | EF of 5-OH-PCB from incubation of parent PCB with rat liver microsomes (rat liver microsomes): 0.70 | Average EF of 5-OH-PCB metabolite (Rat CYP2B1 [3]): 0.77

Oc1cc(Cl)c(Cl)c(-c2cc(Cl)c(Cl)cc2Cl)c1Cl [5-149, 2,2',4',5,5',6-hexachlorobiphenyl-3-ol]
EF of 5-OH-PCB from incubation of parent PCB with rat liver microsomes (rat liver microsomes): 0.66 | Average EF of 5-OH-PCB metabolite (Rat CYP2B1 [3]): 0.41

Clc1ccc(Cl)c(-c2c(Cl)ccc(Cl)c2Cl)c1Cl [(+)-PCB 136]
Biotransformation activity of (+)-PCB 136 in the presence of (−)-PCB 136 (Rat CYP2B1 [2]; 500 ng (+)-PCB 136, 0-500 ng/mL (−)-PCB 136, 60 min): not significantly affected | Biotransformation activity of atropisomer compared with antipode (Rat CYP2B1 [3]; rat CYP2B1, 60 min): significantly higher than their respective antipodes

Clc1ccc(Cl)c(-c2c(Cl)ccc(Cl)c2Cl)c1 [E2-95]
Biotransformation activity of atropisomer compared with antipode (Rat CYP2B1 [3]; rat CYP2B1, 60 min): significantly higher than their respective antipodes

Oc1cc(Cl)c(Cl)c(-c2ccc(Cl)c(Cl)c2Cl)c1Cl [5’-132, 2,2',3,3',4',6-hexachlorobiphenyl-5-ol]
EF of 5-OH-PCB from incubation of parent PCB with rat liver microsomes (rat liver microsomes): 0.30 | Average EF of 5-OH-PCB metabolite (Rat CYP2B1 [3]): 0.85

Clc1ccc(Cl)c(-c2c(Cl)ccc(Cl)c2Cl)c1Cl [(−)-PCB 136]
5-136 atropisomer formed in pure atropisomer incubation (Rat CYP2B1 [2]; pure (−)-PCB 136 incubations, Fig. 4A2): E1-5-136 was the only metabolite

Oc1cc(Cl)c(-c2c(Cl)ccc(Cl)c2Cl)c(Cl)c1Cl [4-136, 2,2',3,3',6,6'-hexachlorobiphenyl-4-ol]
Formation of metabolite with increases in initial (−)-PCB 136 concentration (Rat CYP2B1 [2]; 500 ng (+)-PCB 136 as major substrate, 60 min): significant increase | Formation of metabolite with increases in initial (+)-PCB 136 concentration (Rat CYP2B1 [2]; 60 min): significantly decreased

Clc1ccc(Cl)c(-c2c(Cl)ccc(Cl)c2Cl)c1Cl [PCB 136, 2,2',3,3',6,6'-hexachlorobiphenyl]
EF of PCB in mice tissues after oral administration ([4]; C57Bl/6 female mice tissues, oral administration): ~0.7 | EF of PCB after 30 min microsomal incubation (rat liver microsomes; 30 min): 0.40 | Yield of 5-OH-PCB metabolite in rat liver microsomal studies (rat liver microsomes): 22% | Depletion of PCB after 60 min incubation (Rat CYP2B1 [3]; 60 min): 21% | Formation of 4,5-DiOH-PCB from PCB (Rat CYP2B1 [3]; rat CYP2B1, 60 min): minor metabolites | 4-OH-PCB metabolites detected by GC-ECD (Rat CYP2B1 [3]; rat CYP2B1, 60 min): minor products

Clc1ccc(Cl)c(-c2c(Cl)ccc(Cl)c2Cl)c1 [PCB 95, 2,2',3,5',6-pentachlorobiphenyl]
EF of PCB in vivo in rats [5]: > 0.5 | Yield of 5-OH-PCB metabolite in rat liver microsomal studies (rat liver microsomes): 8.8% | 4-OH-PCB metabolites detected by GC-ECD (Rat CYP2B1 [3]; rat CYP2B1, 60 min): minor products

Clc1ccc(-c2c(Cl)ccc(Cl)c2Cl)c(Cl)c1Cl [PCB 132, 2,2',3,3',4,6'-hexachlorobiphenyl]
Yield of 5-OH-PCB metabolite in rat liver microsomal studies (rat liver microsomes): 16% | Depletion of PCB after 60 min incubation (Rat CYP2B1 [3]; 60 min): 11%

Oc1cc(Cl)c(Cl)c(-c2cc(Cl)ccc2Cl)c1Cl [5-95, 2,2',3,5',6-pentachlorobiphenyl-5-ol]
EF of OH-PCB 95 in the liver [4]: ~0.65 | EF of 5-OH-PCB from incubation of parent PCB with rat liver microsomes (rat liver microsomes): 0.36 | Average EF of 5-OH-PCB metabolite (Rat CYP2B1 [3]): 0.20 and ~ 0.20 | Biotransformation activity of 5-95 compared with 4-95 (Rat CYP2B1 [3]; rat CYP2B1, 60 min, Fig. 2A1): significantly greater biotransformation activity | Depletion of OH-PCB after 60 min (Rat CYP2B1 [3]; 60 min): 64% | EF of OH-PCB substrate after biotransformation (Rat CYP2B1 [3]; 60 min): 0.46

Clc1ccc(-c2c(Cl)ccc(Cl)c2Cl)c(Cl)c1 [E1-91]
Biotransformation activity of atropisomer compared with antipode (Rat CYP2B1 [3]; rat CYP2B1, 60 min): significantly higher than their respective antipodes

Clc1ccc(-c2c(Cl)ccc(Cl)c2Cl)c(Cl)c1Cl [(−)-132]
Biotransformation activity of atropisomer compared with antipode (Rat CYP2B1 [3]; rat CYP2B1, 60 min): significantly higher than their respective antipodes

Oc1cc(Cl)c(Cl)c(-c2ccc(Cl)cc2Cl)c1Cl [5-91, 2,2',3,4',6-pentachlorobiphenyl-5-ol]
EF of 5-OH-PCB from incubation of parent PCB with rat liver microsomes (rat liver microsomes): 0.54 | Average EF of 5-OH-PCB metabolite (Rat CYP2B1 [3]): 0.17

Clc1cc(Cl)c(-c2c(Cl)ccc(Cl)c2Cl)cc1Cl [PCB 149, 2,2',3,4',5',6-hexachlorobiphenyl]
EF of PCB 149 after 30 min biotransformation by rat liver microsomes (rat liver microsomes; 30 min): 0.46 | Yield of 5-OH-PCB metabolite in rat liver microsomal studies (rat liver microsomes): 2.6% | Depletion of PCB after 60 min incubation (Rat CYP2B1 [3]; 60 min): 4% | Stereoselectivity of biotransformation (Rat CYP2B1 [3]; rat CYP2B1, 60 min): no apparent stereoselectivity

Oc1c(O)c(Cl)c(-c2cc(Cl)ccc2Cl)c(Cl)c1Cl [4,5-95, 3,4-dihydroxy −2,2',5,5',6-pentachlorobiphenyl]
EF of 4,5-95 formed (Rat CYP2B1 [3]; rat CYP2B1, 4-95 incubation, 60 min): 0.53

Oc1c(O)c(Cl)c(-c2c(Cl)ccc(Cl)c2Cl)c(Cl)c1Cl [4,5-136, 3,4-dihydroxy −2,2',3',5,6,6'-hexachlorobiphenyl]
Formation of metabolite with increases in initial (+)-PCB 136 concentration (Rat CYP2B1 [2]; 60 min): significantly decreased

Oc1cc(Cl)c(-c2cc(Cl)ccc2Cl)c(Cl)c1Cl [4-95, 2,2',3,5',6-pentachlorobiphenyl-4-ol]
EF of OH-PCB 95 in the liver [4]: about 0.20 | Depletion of OH-PCB after 60 min (Rat CYP2B1 [3]; 60 min): 40% | EF of OH-PCB substrate after biotransformation (Rat CYP2B1 [3]; 60 min): 0.62

Clc1ccc(-c2c(Cl)ccc(Cl)c2Cl)c(Cl)c1 [PCB 91, 2,2',3,4',6-pentachlorobiphenyl]
Yield of 5-OH-PCB metabolite in rat liver microsomal studies (rat liver microsomes): 20% | Formation of 4,5-DiOH-PCB from PCB (Rat CYP2B1 [3]; rat CYP2B1, 60 min): minor metabolites | 4-OH-PCB metabolites detected by GC-ECD (Rat CYP2B1 [3]; rat CYP2B1, 60 min): minor products
